Results reported in ChEMBL document CHEMBL4392822, “HSP60/10 chaperonin systems are inhibited by a variety of approved drugs, natural products, and known bioactive molecules” (Bioorg Med Chem Lett, 2019).
pIC50: −log10 of the molar value.

Legend:
[1] = molecular target: HSP60/HSP10 (Homo sapiens, UniProt P10809);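 further: His-tagged human HSP60 with HSP10 refolding denatured MDH, read as MDH activity on mesoxalate by malachite green spectrometry, inhibition of refolding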
Description: Inhibition of human N-terminal octa-His-tagged HSP60 expressed in Escherichia coli Rosetta(DE3) pLysS/human HSP10 expressed in Escherichia coli Rosetta(DE3) assessed as reduction in HSP60/HSP10-mediated denatured MDH refolding by measuring MDH enzyme activity using sodium mesoxalate as substrate after 40 to 60 mins by malachite green dye based spectrometric analysis

[2] = molecular target: Chaperonin GroEL (Escherichia coli (strain K12), UniProt P0A6F5);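 further: inhibition of GroEL ATPase activity with ATP as substrate, 60 min incubation, spectrometric read-out, recombinant enzyme produced in Escherichia coli DH5alpha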
Description: Inhibition of ATPase activity of Escherichia coli GroEL expressed in Escherichia coliDH5alpha incubated for 60 mins using ATP by spectrometric analysis

[3] = molecular target: T1, E. coli GroEL/ES (Escherichia coli, UniProt P0A6F5)
Description: Inhibition of Escherichia coli GroEL expressed in Escherichia coliDH5alpha/Escherichia coli GroES expressed in Escherichia coli BL21 (DE3) assessed as reduction in GroEL/GroES-mediated denatured soluble pig heart MDH refolding by measuring MDH enzyme activity using sodium mesoxalate as substrate after 20 to 40 mins by malachite green dye based spectrometric analysis

[4] = molecular target: T1, E. coli GroEL/ES; remark: listed apart in the source
Description: Inhibition of Escherichia coli GroEL expressed in Escherichia coli DH5alpha/Escherichia coli GroES expressed in Escherichia coli BL21 (DE3) assessed as reduction in GroEL/GroES-mediated denatured rhodanese refolding by measuring rhodanese enzyme activity after 45 mins by Fe(SCN)3 dye based spectrometric analysis

[5] = molecular target: T2, Thiosulfate sulfurtransferase (Homo sapiens, UniProt Q16762); assay type: ADME;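 further: native rhodanese of unspecified species, enzyme activity read after 45 min by spectrophotometric detection of Fe(SCN)3 colour, IC50 reflects activity reduction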
T2 sequence (Q16762 whole entry): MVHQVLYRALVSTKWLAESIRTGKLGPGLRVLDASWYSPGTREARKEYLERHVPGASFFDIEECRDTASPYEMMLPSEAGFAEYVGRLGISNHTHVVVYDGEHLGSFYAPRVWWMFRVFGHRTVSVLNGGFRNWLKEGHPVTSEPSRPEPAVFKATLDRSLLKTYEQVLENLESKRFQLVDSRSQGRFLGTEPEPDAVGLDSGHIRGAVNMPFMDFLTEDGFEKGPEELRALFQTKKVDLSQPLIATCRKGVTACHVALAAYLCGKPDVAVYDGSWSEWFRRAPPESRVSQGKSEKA
Description: Inhibition of native rhodanese (unknown origin) assessed as reduction in rhodanese enzyme activity after 45 mins by Fe(SCN)3 dye based spectrometric analysis

Sequence of HSP60/HSP10 (P10809 whole entry): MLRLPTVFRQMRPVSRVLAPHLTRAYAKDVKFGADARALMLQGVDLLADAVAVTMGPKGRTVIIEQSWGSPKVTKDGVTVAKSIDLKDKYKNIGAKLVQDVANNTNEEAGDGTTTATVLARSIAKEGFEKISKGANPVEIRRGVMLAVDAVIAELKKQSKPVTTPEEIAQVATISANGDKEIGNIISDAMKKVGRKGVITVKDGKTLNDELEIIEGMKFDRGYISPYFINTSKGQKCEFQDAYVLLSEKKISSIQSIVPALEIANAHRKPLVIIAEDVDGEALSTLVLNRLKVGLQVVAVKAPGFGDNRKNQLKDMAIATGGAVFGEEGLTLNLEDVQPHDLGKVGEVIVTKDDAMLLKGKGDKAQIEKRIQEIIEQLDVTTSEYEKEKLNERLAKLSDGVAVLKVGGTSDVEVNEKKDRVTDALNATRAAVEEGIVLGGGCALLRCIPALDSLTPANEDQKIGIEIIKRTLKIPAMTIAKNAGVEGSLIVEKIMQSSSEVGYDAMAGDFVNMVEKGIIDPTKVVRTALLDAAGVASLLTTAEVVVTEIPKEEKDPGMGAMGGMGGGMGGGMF
Sequence of HSP60/HSP10 (P61604 whole entry, further chain): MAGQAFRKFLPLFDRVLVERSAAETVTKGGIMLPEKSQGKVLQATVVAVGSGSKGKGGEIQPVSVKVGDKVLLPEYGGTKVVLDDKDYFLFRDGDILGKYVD
T1 sequence (P0A6F5 whole entry, looked up): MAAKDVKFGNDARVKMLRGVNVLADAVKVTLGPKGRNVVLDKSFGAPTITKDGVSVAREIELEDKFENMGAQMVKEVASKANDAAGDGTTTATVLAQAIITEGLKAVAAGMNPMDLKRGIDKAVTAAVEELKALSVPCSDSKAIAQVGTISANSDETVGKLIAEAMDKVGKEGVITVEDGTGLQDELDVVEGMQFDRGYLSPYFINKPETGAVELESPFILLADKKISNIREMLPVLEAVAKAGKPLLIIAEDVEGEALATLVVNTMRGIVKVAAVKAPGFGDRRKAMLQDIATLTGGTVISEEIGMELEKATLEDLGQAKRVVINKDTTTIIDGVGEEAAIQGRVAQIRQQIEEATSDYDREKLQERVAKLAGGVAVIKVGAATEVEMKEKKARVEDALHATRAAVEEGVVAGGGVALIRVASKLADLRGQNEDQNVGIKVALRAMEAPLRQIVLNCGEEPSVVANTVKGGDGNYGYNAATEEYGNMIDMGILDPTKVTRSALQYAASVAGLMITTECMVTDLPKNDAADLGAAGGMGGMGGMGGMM
Sequence of Chaperonin GroEL (P0A6F5 whole entry): as the sequence (P0A6F5 whole entry, looked up) above

Molecule | pIC50 [1] | pIC50 [2] | pIC50 [3] | pIC50 [4] | pIC50 [5]
CC(=O)O[C@H]1C(=O)[C@@]2(C)[C@H]([C@H](OC(=O)c3ccccc3)[C@]3(O)C[C@H](OC(=O)[C@H](O)[C@@H](NC(=O)c4ccccc4)c4ccccc4)C(C)=C1C3(C)C)[C@]1(OC(C)=O)CO[C@@H]1C[C@@H]2O [PACLITAXEL] | < 4.00 | < 3.60 | 4.25 | 3.94 | –
Nc1ccc(O)c(C(=O)O)c1 [MESALAMINE] | – | – | – | – | 6.55
Cc1ccc(C(=O)Nc2ccc(S(=O)(=O)O)c3cc(S(=O)(=O)O)cc(S(=O)(=O)O)c23)cc1NC(=O)c1cccc(NC(=O)Nc2cccc(C(=O)Nc3cc(C(=O)Nc4ccc(S(=O)(=O)O)c5cc(S(=O)(=O)O)cc(S(=O)(=O)O)c45)ccc3C)c2)c1 [SURAMIN] | 5.14 | < 3.60 | – | – | < 4.00
Cc1cc2nc3c(=O)[nH]c(=O)nc-3n(C[C@H](O)[C@H](O)[C@H](O)COP(=O)(O)O)c2cc1C [RIBOFLAVIN 5'-PHOSPHATE SODIUM] | – | < 3.60 | 4.07 | 6.11 | 6.42
CCCCN1CCC(COC(=O)c2cc(Cl)c(N)c3c2OCCO3)CC1 | < 4.00 | – | < 4.00 | < 3.60 | < 4.00
IVERMECTIN | – | < 3.60 | – | – | < 4.00
CC1=NCCc2c1[nH]c1cc(O)ccc21 [HARMALOL] | < 4.00 | < 3.60 | < 4.00 | – | –
CCOc1nc2cccc(C(=O)O)c2n1Cc1ccc(-c2ccccc2-c2nnn[nH]2)cc1 | < 4.00 | – | < 4.00 | < 3.60 | < 4.00
C=C1CC[C@H](O)C/C1=C/C=C1\CCC[C@]2(C)[C@@H]([C@H](C)/C=C/[C@H](C)C(C)C)CC[C@@H]12 [ERGOCALCIFEROL] | 4.35 | < 3.60 | 4.55 | 4.39 | –
Cc1cc2nc3c(=O)[nH]c(=O)nc-3n(C[C@H](O)[C@H](O)[C@H](O)CO)c2cc1C [RIBOFLAVIN] | < 4.00 | < 3.60 | < 4.00 | 4.74 | –
CC(C)(C)NCC(O)c1ccc(O)c(CO)c1 (centres undefined) [ALBUTEROL] | < 4.00 | – | < 4.00 | < 3.60 | < 4.00
COc1cc(NC(C)CCCN)c2ncccc2c1 (centres undefined) [PRIMAQUINE] | < 4.00 | – | – | – | 5.54
COc1cc(-c2ccc(/N=N/c3ccc4c(S(=O)(=O)O)cc(S(=O)(=O)O)c(N)c4c3O)c(OC)c2)ccc1/N=N/c1ccc2c(S(=O)(=O)O)cc(S(=O)(=O)O)c(N)c2c1O | – | – | 5.41 | 5.70 | 5.07
O=C1C=C2CC3(O)COc4c(ccc(O)c4O)C3=C2C=C1O (centres undefined) [HEMATEIN] | 5.44 | < 3.60 | 5.74 | – | 4.92
CN(C)c1ccc2nc3ccc(=[N+](C)C)cc-3sc2c1 [METHYLENE BLUE] | < 4.00 | – | – | – | 5.21
C[C@H](CCC(=O)O)[C@H]1CC[C@H]2[C@@H]3CC[C@@H]4C[C@H](O)CC[C@]4(C)[C@H]3CC[C@]12C [LITHOCHOLIC ACID] | 5.00 | < 3.60 | – | 4.23 | < 4.00
C=C(NC(=O)C(=C)NC(=O)c1csc(C2=N[C@@H]3c4csc(n4)[C@H]4NC(=O)c5csc(n5)[C@H]([C@](C)(O)[C@@H](C)O)NC(=O)[C@H]5CSC(=N5)/C(=C/C)NC(=O)[C@H]([C@@H](C)O)NC(=O)c5csc(n5)[C@]3(CC2)NC(=O)[C@H](C)NC(=O)C(=C)NC(=O)[C@H](C)NC(=O)[C@H]([C@@H](C)CC)N[C@@H]2C=Cc3c([C@H](C)O)cc(nc3[C@H]2O)C(=O)O[C@@H]4C)n1)C(N)=O [THIOSTREPTON] | 4.89 | < 3.60 | 5.17 | – | < 4.00
Cc1cc(C(C#N)c2ccc(Cl)cc2)c(Cl)cc1NC(=O)c1cc(I)cc(I)c1O (centres undefined) [CLOSANTEL] | 5.55 | < 3.60 | – | 5.70 | < 4.00
CC1=C(/C=C/C(C)=C/C=C/C(C)=C/C(=O)O)C(C)(C)CCC1 [TRETINOIN] | 5.28 | < 3.60 | 5.17 | 4.68 | –
